{
  "source": "ChEMBL document CHEMBL1125035",
  "about": "“Synthesis and biological activity of novel vitamin D analogues: 24,24-difluoro-25-hydroxy-26,27-dimethylvitamin D3 and 24,24-difluoro-1 alpha,25-dihydroxy-26,27-dimethylvitamin D3” (1990)",
  "key": {"[1]": {"target": "T1, Vitamin D-binding protein (Rattus norvegicus) (UniProt P04276)", "T1 sequence (whole entry)": "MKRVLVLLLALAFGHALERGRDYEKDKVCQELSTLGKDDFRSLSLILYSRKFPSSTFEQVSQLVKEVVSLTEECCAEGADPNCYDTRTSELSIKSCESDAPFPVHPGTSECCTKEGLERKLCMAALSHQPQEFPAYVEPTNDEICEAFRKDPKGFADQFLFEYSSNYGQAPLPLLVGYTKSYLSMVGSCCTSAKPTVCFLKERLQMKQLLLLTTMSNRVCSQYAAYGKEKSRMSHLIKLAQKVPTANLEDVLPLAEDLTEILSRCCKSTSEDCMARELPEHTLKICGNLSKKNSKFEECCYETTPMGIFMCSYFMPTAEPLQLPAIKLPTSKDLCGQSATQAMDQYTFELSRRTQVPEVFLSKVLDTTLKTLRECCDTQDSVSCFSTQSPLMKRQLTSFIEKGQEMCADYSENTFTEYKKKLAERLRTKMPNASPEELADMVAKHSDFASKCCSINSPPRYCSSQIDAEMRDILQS", "experiment": "Displacement of [3H]25-(OH)-D3 from rat plasma Vitamin D binding protein", "type": "cell-free"}, "[2]": {"species_on_record": "Gallus gallus", "experiment": "Bind to chick intestinal Vitamin D3 receptor for 1,25-(OH)2-D3"}, "[3]": {"species_on_record": "Rattus norvegicus", "experiment": "Calcium binding protein induction in duodenal organ culture at a concentration of 0.1 nM in Male Albino rats", "type": "functional"}, "[4]": {"experiment": "Relative potency against calcium binding protein induction in duodenal organ culture at a concentration of 0.01 nM compared to 1,25-(OH)2-D3 in Male Albino rats", "type": "functional"}, "[5]": {"species_on_record": "Rattus norvegicus", "experiment": "Calcium binding protein induction in duodenal organ culture at a concentration of 10 nM in Male Albino rats", "type": "functional"}, "[6]": {"species_on_record": "Rattus norvegicus", "experiment": "Calcium binding protein induction in duodenal organ culture at a concentration of 0.01 nM in Male Albino rats", "type": "functional"}, "[7]": {"species_on_record": "Rattus norvegicus", "experiment": "Calcium binding protein induction in duodenal organ culture at a concentration of 1 nM in Male Albino rats", "type": "functional"}},
  "data": [
    {"smiles": "C=C1CC[C@H](O)C/C1=C/C=C1\\CCC[C@]2(C)[C@@H]([C@H](C)CCCC(C)C)CC[C@@H]12", "values": [
      {"measurement": "B50", "setting": "[1]", "result": 338, "unit": "nM"}
    ]},
    {"smiles": "C=C1/C(=C/C=C2\\CCC[C@]3(C)[C@@H]([C@H](C)CCCC(C)C)CC[C@@H]23)C[C@@H](O)C[C@@H]1O", "values": [
      {"measurement": "B50", "setting": "[1]", "result": 848, "unit": "nM"},
      {"measurement": "B50", "setting": "[2]", "result": 139, "unit": "nM"}
    ]},
    {"smiles": "C=C1CC[C@H](O)C/C1=C/C=C1\\CCC[C@]2(C)[C@@H]([C@H](C)CCC[C@@](C)(O)CO)CC[C@@H]12", "values": [
      {"measurement": "B50", "setting": "[1]", "result": 4.03, "unit": "nM"},
      {"measurement": "B50", "setting": "[2]", "result": 4300, "unit": "nM"}
    ]},
    {"smiles": "C=C1CC[C@H](O)C/C1=C/C=C1\\CCC[C@]2(C)[C@@H]([C@H](C)CC[C@@H](O)C(C)(C)O)CC[C@@H]12", "values": [
      {"measurement": "B50", "setting": "[1]", "result": 3.22, "unit": "nM"},
      {"measurement": "B50", "setting": "[2]", "result": 804, "unit": "nM"}
    ]},
    {"smiles": "C=C1/C(=C/C=C2\\CCC[C@]3(C)[C@@H]([C@H](C)CCC(F)(F)C(O)(CC)CC)CC[C@@H]23)C[C@@H](O)C[C@@H]1O", "values": [
      {"measurement": "Ca2+ binding protein", "setting": "[3]", "result": "21.7 ug (100mg of duodenum)-1"},
      {"measurement": "Relative potency", "setting": "[4]", "result": 325},
      {"measurement": "Ca2+ binding protein", "setting": "[5]", "result": "94 ug (100mg of duodenum)-1"},
      {"measurement": "Ca2+ binding protein", "setting": "[6]", "result": "11.9 ug (100mg of duodenum)-1"},
      {"measurement": "Ca2+ binding protein", "setting": "[7]", "result": "49.5 ug (100mg of duodenum)-1"}
    ]}
  ]
}
